Laboratory results taken from ChEMBL document CHEMBL5380833 (J Med Chem, 2023).
Calls of active or inactive are those of the source. No cut-off for these calls is given here.

Key:
[1] = molecular target: T1, Protein cereblon/Tyrosine-protein kinase ITK/TSK (Homo sapiens, UniProt Q08881+Q96SW2); experiment: PROTAC activity at CRBN/ITK in human Jurkat cells assessed as induction of ITK degradation at 100 nM pretreated with proteosome inhibitor carfilzomib for 1 hr followed by compound addition and measured after 2 hrs by Western blot analysis; assay type: cell-based
Target sequence in this assay (Q08881 whole entry, looked up): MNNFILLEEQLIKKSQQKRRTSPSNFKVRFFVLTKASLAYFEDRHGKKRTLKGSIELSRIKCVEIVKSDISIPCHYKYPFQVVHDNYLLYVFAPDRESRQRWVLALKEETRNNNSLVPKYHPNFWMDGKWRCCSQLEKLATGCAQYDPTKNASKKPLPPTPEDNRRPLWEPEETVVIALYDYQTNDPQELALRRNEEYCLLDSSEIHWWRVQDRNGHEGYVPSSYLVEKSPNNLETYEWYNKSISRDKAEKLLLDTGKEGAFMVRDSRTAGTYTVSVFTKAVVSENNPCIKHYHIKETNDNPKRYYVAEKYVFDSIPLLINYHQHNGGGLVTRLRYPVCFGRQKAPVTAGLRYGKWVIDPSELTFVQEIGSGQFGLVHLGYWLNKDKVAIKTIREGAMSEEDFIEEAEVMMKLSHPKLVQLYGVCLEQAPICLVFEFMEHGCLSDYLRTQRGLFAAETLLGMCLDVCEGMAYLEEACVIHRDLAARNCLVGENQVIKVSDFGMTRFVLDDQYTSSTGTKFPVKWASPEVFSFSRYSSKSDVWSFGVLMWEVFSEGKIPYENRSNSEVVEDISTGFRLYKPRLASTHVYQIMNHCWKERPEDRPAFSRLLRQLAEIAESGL
Target sequence in this assay (Q96SW2 whole entry, looked up): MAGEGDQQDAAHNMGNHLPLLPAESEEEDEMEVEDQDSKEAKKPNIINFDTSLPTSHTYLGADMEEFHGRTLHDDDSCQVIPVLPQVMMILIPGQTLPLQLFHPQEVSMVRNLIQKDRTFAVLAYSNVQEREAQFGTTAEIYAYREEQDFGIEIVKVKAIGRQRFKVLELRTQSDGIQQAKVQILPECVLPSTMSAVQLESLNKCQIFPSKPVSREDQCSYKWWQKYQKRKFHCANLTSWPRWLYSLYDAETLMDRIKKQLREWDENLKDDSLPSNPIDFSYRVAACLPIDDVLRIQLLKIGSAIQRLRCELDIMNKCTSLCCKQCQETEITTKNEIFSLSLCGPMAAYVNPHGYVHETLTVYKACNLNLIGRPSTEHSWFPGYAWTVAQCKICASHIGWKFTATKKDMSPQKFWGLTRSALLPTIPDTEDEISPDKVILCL

[2] = molecular target: T1, Protein cereblon/Tyrosine-protein kinase ITK/TSK; experiment: PROTAC activity at CRBN/ITK in human Jurkat cells assessed as downregulation of ITK protein at 100 nM preincubated with cells for 12 hrs followed by compound washout measured after 24 hrs; assay type: cell-based
Target sequence in this assay (Q08881 whole entry, looked up): as the sequence (Q08881 whole entry, looked up) above
Target sequence in this assay (Q96SW2 whole entry, looked up): as the sequence (Q96SW2 whole entry, looked up) above

[3] = Clearance in Balb/c mouse at 10 mg/kg, ip measured upto 24 hrs by LC-MS/MS analysis; assay type: ADME, organism-based; conditions: in vivo
[4] = molecular target: T2, Tyrosine-protein kinase TXK (Homo sapiens) (UniProt P42681); experiment: Induction of degradation of RLK in human Jurkat cells at 0.01 to 10 uM by immunoblotting analysis; assay type: cell-based; conditions: dose 0.01-10 µM
T2 sequence (whole entry): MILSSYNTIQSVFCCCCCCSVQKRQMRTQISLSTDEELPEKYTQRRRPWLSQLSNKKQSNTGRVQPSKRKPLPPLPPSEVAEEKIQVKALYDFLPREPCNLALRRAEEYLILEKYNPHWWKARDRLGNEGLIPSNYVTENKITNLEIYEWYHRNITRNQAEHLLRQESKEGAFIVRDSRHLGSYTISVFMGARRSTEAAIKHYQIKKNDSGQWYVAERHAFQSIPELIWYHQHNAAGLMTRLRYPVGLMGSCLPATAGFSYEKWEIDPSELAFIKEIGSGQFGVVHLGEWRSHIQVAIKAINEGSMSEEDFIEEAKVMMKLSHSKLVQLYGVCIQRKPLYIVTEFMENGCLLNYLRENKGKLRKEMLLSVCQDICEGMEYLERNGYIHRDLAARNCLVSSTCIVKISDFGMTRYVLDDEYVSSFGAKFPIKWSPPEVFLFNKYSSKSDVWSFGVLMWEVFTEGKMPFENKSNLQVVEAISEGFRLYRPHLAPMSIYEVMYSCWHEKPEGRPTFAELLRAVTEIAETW

[5] = molecular target: T1, Protein cereblon/Tyrosine-protein kinase ITK/TSK; experiment: PROTAC activity at CRBN/ITK in human Jurkat cells assessed as residual activity at 10 uM incubated for 16 hrs relative to control; assay type: cell-based
Target sequence in this assay (Q08881 whole entry, looked up): as the sequence (Q08881 whole entry, looked up) above
Target sequence in this assay (Q96SW2 whole entry, looked up): as the sequence (Q96SW2 whole entry, looked up) above

[6] = Volume of distribution at steady state in Balb/c mouse at 5 mg/kg, iv measured upto 24 hrs by LC-MS/MS analysis; assay type: ADME, organism-based; conditions: in vivo, read-out: Vdss
[7] = Cmax in Balb/c mouse at 5 mg/kg, iv measured upto 24 hrs by LC-MS/MS analysis; assay type: ADME, organism-based; set-up: time < 24 hrs, dose 5 mg/kg, route iv; conditions: in vivo
Jurkat [8] = experiment: Inhibition of TCR signalling in human Jurkat cells assessed as reduction in ERK(T202/Y204) phosphorylation preincubated with cells for 12 hrs followed by anti-CD-2 antibody stimulation for 5 mins by Western blot analysis; assay type: cell-based; conditions: dose 0.01-3 µM
[9] = molecular target: T1, Protein cereblon/Tyrosine-protein kinase ITK/TSK; experiment: PROTAC activity at CRBN/ITK in human MOLT-4 cells assessed as induction of ITK degradation; assay type: cell-based
Target sequence in this assay (Q08881 whole entry): as the sequence (Q08881 whole entry, looked up) above
Target sequence in this assay (Q96SW2 whole entry): as the sequence (Q96SW2 whole entry, looked up) above

[10] = AUC (0 to infinity) in Balb/c mouse at 10 mg/kg, ip measured upto 24 hrs by LC-MS/MS analysis; assay type: ADME, organism-based; set-up: dose 10 mg/kg, time < 24 hrs, route ip; conditions: in vivo
[11] = molecular target: T1, Protein cereblon/Tyrosine-protein kinase ITK/TSK; experiment: PROTAC activity at CRBN/ITK in human Jurkat cells assessed as reduction in ITK protein at 100 nM measured within 4 hrs; assay type: cell-based
Target sequence in this assay (Q08881 whole entry, looked up): as the sequence (Q08881 whole entry, looked up) above
Target sequence in this assay (Q96SW2 whole entry, looked up): as the sequence (Q96SW2 whole entry, looked up) above

[12] = molecular target: T1, Protein cereblon/Tyrosine-protein kinase ITK/TSK; experiment: PROTAC activity at CRBN/ITK in Jurkat cells assessed as induction of ITK degradation at 100 nM pretreated with GNE-9822 for 1 hr followed by compound addition and measured after 2 hrs by Western blot analysis; assay type: cell-based
Target sequence in this assay (Q08881 whole entry, looked up): as the sequence (Q08881 whole entry, looked up) above
Target sequence in this assay (Q96SW2 whole entry, looked up): as the sequence (Q96SW2 whole entry, looked up) above

[13] = molecular target: T1, Protein cereblon/Tyrosine-protein kinase ITK/TSK; experiment: PROTAC activity at CRBN/ITK in human Jurkat cells assessed as induction of ITK degradation at 100 nM measured after 2 hrs by Western blot analysis; assay type: cell-based
Target sequence in this assay (Q08881 whole entry, looked up): as the sequence (Q08881 whole entry, looked up) above
Target sequence in this assay (Q96SW2 whole entry, looked up): as the sequence (Q96SW2 whole entry, looked up) above

[14] = Bioavailability in Balb/c mouse at 10 mg/kg, ip measured upto 24 hrs by LC-MS/MS analysis; assay type: ADME, organism-based; conditions: in vivo
[15] = molecular target: Tyrosine-protein kinase Tec (Homo sapiens) (UniProt P42680); experiment: Induction of degradation of TEC in human Jurkat cells at 0.01 to 10 uM by immunoblotting analysis; conditions: dose 0.01-10 µM
Chain of Tyrosine-protein kinase Tec (Homo sapiens) (P42680 whole entry, looked up): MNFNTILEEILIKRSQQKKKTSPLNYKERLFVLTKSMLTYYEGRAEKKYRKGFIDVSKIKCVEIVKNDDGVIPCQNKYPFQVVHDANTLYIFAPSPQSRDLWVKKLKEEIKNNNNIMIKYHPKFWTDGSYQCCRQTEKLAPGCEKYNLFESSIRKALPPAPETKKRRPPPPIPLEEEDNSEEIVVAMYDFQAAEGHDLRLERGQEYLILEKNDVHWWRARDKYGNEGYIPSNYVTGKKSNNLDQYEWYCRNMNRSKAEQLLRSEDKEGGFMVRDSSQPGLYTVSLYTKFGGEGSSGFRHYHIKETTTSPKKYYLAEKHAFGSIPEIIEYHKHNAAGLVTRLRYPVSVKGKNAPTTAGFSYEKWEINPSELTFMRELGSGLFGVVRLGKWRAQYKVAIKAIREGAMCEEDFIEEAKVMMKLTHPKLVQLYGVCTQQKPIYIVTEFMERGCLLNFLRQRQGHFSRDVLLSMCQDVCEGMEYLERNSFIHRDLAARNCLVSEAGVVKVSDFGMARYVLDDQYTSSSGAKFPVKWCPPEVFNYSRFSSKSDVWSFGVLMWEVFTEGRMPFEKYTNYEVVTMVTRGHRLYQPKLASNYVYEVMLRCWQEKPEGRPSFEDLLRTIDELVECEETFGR

[16] = AUC (0 to infinity) in Balb/c mouse at 5 mg/kg, iv measured upto 24 hrs by LC-MS/MS analysis; assay type: ADME, organism-based; set-up: time < 24 hrs, dose 5 mg/kg, route iv; conditions: in vivo
[17] = MRT last in Balb/c mouse at 5 mg/kg, iv measured upto 24 hrs by LC-MS/MS analysis; assay type: ADME, organism-based; conditions: in vivo, iv, 5 mg/kg, 24 h
[18] = molecular target: T1, Protein cereblon/Tyrosine-protein kinase ITK/TSK; experiment: PROTAC activity at CRBN/ITK in human Jurkat cells assessed as induction of ITK degradation at 100 nM pretreated with MLN4924 for 1 hr followed by compound addition and measured after 2 hrs by Western blot analysis; assay type: cell-based
[19] = Cmax in Balb/c mouse at 10 mg/kg, ip measured upto 24 hrs by LC-MS/MS analysis; assay type: ADME, organism-based; set-up: dose 10 mg/kg, time < 24 hrs, route ip; conditions: in vivo
[20] = molecular target: T1, Protein cereblon/Tyrosine-protein kinase ITK/TSK; experiment: PROTAC activity at CRBN/ITK in human Jurkat cells assessed as induction of ITK degradation by Western blot analysis; assay type: cell-based; conditions: read-out: EC50
Target sequence in this assay (Q08881 whole entry): as the sequence (Q08881 whole entry, looked up) above
Target sequence in this assay (Q96SW2 whole entry): as the sequence (Q96SW2 whole entry, looked up) above

[21] = AUC (0 to t) in Balb/c mouse at 5 mg/kg, iv measured upto 24 hrs by LC-MS/MS analysis; assay type: ADME, organism-based; set-up: dose 5 mg/kg, time < 24 hrs, route iv; conditions: in vivo
Jurkat [22] = experiment: Induction of degradation of RSK in human Jurkat cells at 0.01 to 10 uM by immunoblotting analysis; assay type: cell-based; conditions: dose 0.01-10 µM
[23] = molecular target: T1, Protein cereblon/Tyrosine-protein kinase ITK/TSK; experiment: PROTAC activity at CRBN/ITK in human Jurkat cells assessed as […] ITK degradation at 300 nM incubated for 8 hrs by tandem mass tag quantitative proteomic analysis; assay type: cell-based
[24] = molecular target: Tyrosine-protein kinase BTK (Homo sapiens) (UniProt Q06187); experiment: Induction of degradation of BTK in human Ramos cells at 0.01 to 10 uM by immunoblotting analysis; assay type: cell-based; conditions: dose 0.01-10 µM
Chain of Tyrosine-protein kinase BTK (Homo sapiens) (Q06187 whole entry): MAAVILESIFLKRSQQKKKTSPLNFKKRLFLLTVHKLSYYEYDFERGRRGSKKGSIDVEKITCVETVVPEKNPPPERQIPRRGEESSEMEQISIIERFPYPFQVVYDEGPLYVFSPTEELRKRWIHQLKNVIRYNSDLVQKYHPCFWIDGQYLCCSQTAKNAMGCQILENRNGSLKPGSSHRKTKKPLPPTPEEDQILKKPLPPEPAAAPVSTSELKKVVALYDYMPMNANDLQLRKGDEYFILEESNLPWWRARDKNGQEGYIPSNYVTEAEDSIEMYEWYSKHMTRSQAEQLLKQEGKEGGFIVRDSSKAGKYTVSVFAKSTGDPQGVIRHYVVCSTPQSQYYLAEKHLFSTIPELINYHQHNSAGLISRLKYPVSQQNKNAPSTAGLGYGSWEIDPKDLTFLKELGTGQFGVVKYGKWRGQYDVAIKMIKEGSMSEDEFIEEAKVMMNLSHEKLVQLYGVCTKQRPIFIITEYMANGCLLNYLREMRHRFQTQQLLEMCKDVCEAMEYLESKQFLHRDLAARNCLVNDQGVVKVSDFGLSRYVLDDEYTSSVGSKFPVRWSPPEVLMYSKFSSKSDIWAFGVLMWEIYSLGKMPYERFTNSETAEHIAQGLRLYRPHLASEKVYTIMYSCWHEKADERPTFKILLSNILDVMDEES

[25] = Toxicity in Balb/c mouse assessed as side effects at 5 mg/kg, iv measured upto 24 hrs by LC-MS/MS analysis; assay type: organism-based; conditions: in vivo
[26] = Toxicity in Balb/c mouse assessed as side effects at 10 mg/kg, ip measured upto 24 hrs by LC-MS/MS analysis; assay type: organism-based; conditions: in vivo
Jurkat [27] = experiment: Inhibition of TCR signalling in human Jurkat cells assessed as reduction in PLCgamma1 phosphorylation preincubated with cells for 12 hrs followed by anti-CD-2 antibody stimulation for 5 mins by Western blot analysis; assay type: cell-based; conditions: dose 0.01-3 µM
[28] = molecular target: T1, Protein cereblon/Tyrosine-protein kinase ITK/TSK; experiment: PROTAC activity at CRBN/ITK in human Jurkat cells assessed as induction of ITK degradation at 100 nM pretreated with 5-amino-2-(2,6-dioxopiperidin-3-yl)isoindoline-1,3-dione for 1 hr followed by compound addition and measured after 2 hrs by Western blot analysis; assay type: cell-based
[29] = MRT last in Balb/c mouse at 10 mg/kg, ip measured upto 24 hrs by LC-MS/MS analysis; assay type: ADME, organism-based; conditions: in vivo
[30] = Toxicity in Balb/c mouse assessed as drug tolerance at 10 mg/kg, ip measured upto 24 hrs by LC-MS/MS analysis; assay type: organism-based; conditions: in vivo
[31] = Half life in Balb/c mouse at 5 mg/kg, iv measured upto 24 hrs by LC-MS/MS analysis; assay type: ADME, organism-based; conditions: in vivo

For `CN(CCCCCC(=O)Nc1ccc2c(c1)C(=O)N(C1CCC(=O)NC1=O)C2=O)CC[C@@H](c1ccccc1)n1cc(NC(=O)c2n[nH]c3c2CCC(C)(C)C3)cn1.O=C(O)C(F)(F)F` (stereo partly specified), the Activity [1] was “inactive”, the Activity [2] was “Active” and the CL/F [3] was 109 mL/min/kg. For the same compound, the Activity [4] was “inactive”, the Activity [5] was 12% and the Vd [6] was 12.9 L/kg. For the same compound, the Cmax [7] was 3320 ng/mL, the inhibition (Jurkat [8]) was “Dose-Dependent Effect” and the DC50 [9] was 6 nM. For the same compound, the AUC(0-inf) [10] was 1590 ng·h/mL, the Activity [11] was “Active” and the Activity [12] was “inactive”. For the same compound, the Activity [13] was “Active”, the bioavailability [14] was 73.5% and the Activity [15] was “inactive”. The AUC(0-inf) [16] was 1080 ng·h/mL, the MRTlast [17] was 0.39 h and the Activity [18] was “inactive”. The Cmax [19] was 1240 ng/mL, the EC50 [20] was 7 nM and the AUC(0-t) at 24 h [21] was 1080 ng·h/mL. For the same compound, the Activity (Jurkat [22]) was “inactive”, the Activity [23] was “Active” and the Activity [24] was “inactive”. For the same compound, the Activity [25] was “Non-Toxic”, the Activity [26] was “Non-Toxic” and the inhibition (Jurkat [27]) was “Dose-Dependent Effect”. The Activity [28] was “inactive”, the MRT last at 24 h [29] was 1.06 h and the Activity [30] was “Non-Toxic”. The half-life [31] was 1.88 h.
